This note sets out measurements from ChEMBL document CHEMBL4840362, “Diterpenoids from the whole plants of Croton yunnanensis and their bioactivities” (Bioorg Med Chem, 2021).

Calls of active or inactive are those of the source. No cut-off for these calls is given here. A value given as a limit tells only on which side of the number the result lay.

Common to all, as to type: functional, cell-based
Test [1] has as its system SMMC-7721. Description: Cytotoxicity against human SMMC-7721 cells assessed as inhibition of cell growth at 40 uM measured after 48 hrs by MTS assay. (Tetrazolium dyes change colour on reduction, which living cells bring about.)
For test [2], the system named is A549. Nature of the test: Cytotoxicity against human A549 cells assessed as inhibition of cell growth at 40 uM measured after 48 hrs by MTS assay.
The subject of the next test is RAW264.7. Description: Antiinflammatory activity against mouse RAW264.7 cells assessed as inhibition of LPS induced nitric oxide production at 50 uM followed by LPS stimulation incubated for 18 hrs by Griess reagent based assay. On the technique in general: The Griess reaction detects nitrite, a stable product of nitric oxide.
The test system of test [3] is HL-60. Nature of the test: Cytotoxicity against human HL-60 cells assessed as inhibition of cell growth at 40 uM measured after 48 hrs by MTS assay.
The test system of the next test is SW480. Nature of the test: Cytotoxicity against human SW480 cells assessed as inhibition of cell growth at 40 uM measured after 48 hrs by MTS assay.
The subject of a further test is MCF7. Nature of the test: Cytotoxicity against human MCF7 cells assessed as inhibition of cell growth at 40 uM measured after 48 hrs by MTS assay.
The test system of test [4] is HL-60. Description: Cytotoxicity against human HL-60 cells assessed as inhibition of cell growth measured after 48 hrs by MTS assay. Particulars: HL-60, 48 h.
Test [5] concerns A549. Description: Cytotoxicity against human A549 cells assessed as inhibition of cell growth measured after 48 hrs by MTS assay. The following applies: A549, 48 h.
Test [6] concerns SMMC-7721. Description: Cytotoxicity against human SMMC-7721 cells assessed as inhibition of cell growth measured after 48 hrs by MTS assay. The following applies: SMMC-7721, 48 h.

As for `COC(=O)C1=CCC[C@H]2C13CC[C@@H](C)[C@]21C[C@@H](c2ccoc2)O[C@@H]1O3`, the result in the test on SMMC-7721 [1], in the test on A549 [2], in the test with RAW264.7, with HL-60 [3], in the test on SW480 and with MCF7 was inactive.
For `COc1c(C)cc2c(c1O)[C@]1(C)CCC(=O)C(C)(C)C1=C(O)C2=O`, the outcome with RAW264.7 was inactive. For the same compound, the IC50 – broadly, the concentration at which inhibition is half-maximal – is 14.4 µM in the test on HL-60 [4], 27.4 µM in the test with A549 [5] and 4.47 µM in the test on SMMC-7721 [6].
On to `COC(=O)C1=CCC[C@@H]2C13CC[C@H](C)[C@@]21C[C@H](c2ccoc2)O[C@H]1O[C@@H]3O`, for which the outcome with SMMC-7721 [1], in the test with A549 [2], in the test on RAW264.7, in the test with HL-60 [3], in the test with SW480 and in the test on MCF7 was inactive.
Take `CC(=O)O[C@H]1C(=O)[C@@]2(C)[C@H]([C@H](OC(=O)c3ccccc3)[C@]3(O)C[C@H](OC(=O)[C@H](O)[C@@H](NC(=O)c4ccccc4)c4ccccc4)C(C)=C1C3(C)C)[C@]1(OC(C)=O)CO[C@@H]1C[C@@H]2O` [PACLITAXEL]: the IC50 with HL-60 [4] is below 0.008 µM; in the test on A549 [5], below 0.008 µM; in the test with SMMC-7721 [6], 0.143 µM.
With `CCCCCCCCCC(=O)O[C@@H]1[C@@H](C)[C@@]2(O)[C@@H](C=C(CO)C[C@]3(O)C(=O)C(C)=C[C@@H]23)[C@@H]2C(C)(C)[C@]12OC(C)=O`, the result in the test on SMMC-7721 [1], in the test with A549 [2], with RAW264.7, in the test with HL-60 [3], with SW480 and in the test with MCF7 was inactive.
Regarding `COC(=O)C1=CCC[C@H]2C1=CC[C@@H](C)[C@]21C[C@@H](c2ccoc2)OC1=O`, the result in the test on SMMC-7721 [1], in the test with A549 [2], in the test on RAW264.7, in the test with HL-60 [3], in the test with SW480 and with MCF7 was inactive.
`COC(=O)[C@@H]1C=CC[C@@H]2C13CC[C@@H](C)[C@]21C[C@@H](c2ccoc2)O[C@@H]1O3`: the result in the test with SMMC-7721 [1], in the test on A549 [2], in the test with RAW264.7, in the test with HL-60 [3], with SW480 and in the test on MCF7 was inactive.
In the case of `COC(=O)C1=CCC[C@@H]2[C@]13CC[C@H](C)[C@@]21C[C@H](c2ccoc2)O[C@H]1OC3=O`, the outcome with SMMC-7721 [1], in the test on A549 [2], in the test on RAW264.7, in the test on HL-60 [3], in the test with SW480 and with MCF7 was inactive.
As for `COC(=O)c1cccc2c1CC[C@@H](C)[C@]21C[C@@H](c2ccoc2)OC1=O`, the outcome in the test with SMMC-7721 [1], in the test with A549 [2], in the test on RAW264.7, in the test with HL-60 [3], in the test on SW480 and in the test on MCF7 was inactive.
With `COC(=O)C12C=CC[C@@H]3[C@@H]1CC[C@H](C)[C@@]31C[C@H](c3ccoc3)O[C@H]1O2`, the outcome with SMMC-7721 [1], in the test with A549 [2], in the test on RAW264.7, in the test on HL-60 [3], with SW480 and in the test on MCF7 was inactive.
